Values after ≈ are worked out from the molar mass of the structure shown. Where two headings read alike, the source gives them in different places.
Columns and labels:
N. gonorrhoeae WHO X = assay: Liquid broth MIC in Fastidious broth; conditions: Neisseria gonorrhoeae
N. gonorrhoeae CDC-0197 = assay: Liquid broth MIC in Fastidious broth; conditions: Neisseria gonorrhoeae
A. baumannii 1258916 = assay: microbe, parasite or virus in culture; type: cell-based, Acinetobacter baumannii; conditions: Acinetobacter baumannii, 1258916, read-out: MIC, A. baumannii 1258916
A. baumannii CDC-0033 = assay: microbe, parasite or virus in culture; type: cell-based; conditions: Acinetobacter baumannii, CDC0033, read-out: MIC, A. baumannii CDC-0033
A. baumannii ATCC 19606 = assay: microbe, parasite or virus in culture; type: cell-based; conditions: Acinetobacter baumannii, ATCC19606, read-out: MIC, A. baumannii ATCC 19606
[1] = target: T1, PBP1a from Acinetobacter baumannii (ATCC 19606) (Acinetobacter baumannii, UniProt A0ABX6CK30); assay: Bocillin-FL fluorescence polarization competition binding, A. baumannii PBP1a; conditions: fluorescence polarization competition binding assay using Bocillin-FL; read-out: A. baumannii PBP1a Potency
T1 sequence (A0ABX6CK30 1-851): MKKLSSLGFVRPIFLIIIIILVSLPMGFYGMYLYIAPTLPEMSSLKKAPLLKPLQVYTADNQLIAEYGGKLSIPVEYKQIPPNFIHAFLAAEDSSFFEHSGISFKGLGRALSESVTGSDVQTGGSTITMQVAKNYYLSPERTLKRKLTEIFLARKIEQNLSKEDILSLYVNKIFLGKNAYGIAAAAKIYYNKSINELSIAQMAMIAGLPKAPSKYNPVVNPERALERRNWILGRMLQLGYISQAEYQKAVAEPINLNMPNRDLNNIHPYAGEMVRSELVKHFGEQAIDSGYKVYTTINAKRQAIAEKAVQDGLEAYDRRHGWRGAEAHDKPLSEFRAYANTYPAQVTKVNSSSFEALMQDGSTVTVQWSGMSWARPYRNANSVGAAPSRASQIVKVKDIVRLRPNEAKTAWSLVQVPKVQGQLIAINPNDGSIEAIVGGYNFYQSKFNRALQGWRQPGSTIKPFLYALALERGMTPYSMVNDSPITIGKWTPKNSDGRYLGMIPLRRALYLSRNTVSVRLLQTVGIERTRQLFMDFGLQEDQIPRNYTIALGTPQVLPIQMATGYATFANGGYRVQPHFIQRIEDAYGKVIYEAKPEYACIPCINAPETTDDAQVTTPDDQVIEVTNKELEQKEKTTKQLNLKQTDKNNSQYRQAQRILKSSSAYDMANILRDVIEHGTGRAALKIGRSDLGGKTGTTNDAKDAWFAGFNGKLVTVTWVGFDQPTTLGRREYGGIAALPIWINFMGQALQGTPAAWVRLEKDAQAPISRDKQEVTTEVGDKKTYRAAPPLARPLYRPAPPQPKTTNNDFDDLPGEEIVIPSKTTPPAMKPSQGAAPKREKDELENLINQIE
Outline: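 Purified PBPs pre-incubated with inhibitor (E. coli PBP3 1.5 μM, 30 min; P. aeruginosa PBP3 0.75 μM, A. baumannii PBP1a 1 μM and PBP3 0.2 μM, 15 min), then Bocillin-FL 0.1 μM (0.05 μM for PBP1a) added; FP read up to 60 min. EC50 = concentration halving bound Bocillin-FL.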

A. baumannii CDC-0083 = assay: microbe, parasite or virus in culture; type: cell-based; conditions: Acinetobacter baumannii, CDC0083, read-out: MIC, A. baumannii CDC-0083
N. gonorrhoeae WHO M = assay: Liquid broth MIC in Fastidious broth; conditions: Neisseria gonorrhoeae
[2] = read-out: Minimum Inhibitory Concentration, WHO X
[3] = CDC0197, read-out: Minimum Inhibitory Concentration, CDC-0197
[4] = read-out: Minimum Inhibitory Concentration, WHO M
[5] = read-out: Minimum Inhibitory Concentration (MIC), N. gonorrhoeae WHO X
[6] = CDC0197, read-out: Minimum Inhibitory Concentration (MIC), N. gonorrhoeae CDC-0197
[7] = read-out: Minimum Inhibitory Concentration (MIC), N. gonorrhoeae WHO M

| SMILES | MIC (N. gonorrhoeae WHO X; [2]) | MIC (N. gonorrhoeae CDC-0197; [3]) | MIC (A. baumannii 1258916) | MIC (A. baumannii CDC-0033) | MIC (A. baumannii ATCC 19606) | IC50 [1] | MIC (A. baumannii CDC-0083) | MIC (N. gonorrhoeae WHO M; [4]) | MIC (N. gonorrhoeae WHO X; [5]) | MIC (N. gonorrhoeae CDC-0197; [6]) | MIC (N. gonorrhoeae WHO M; [7]) |
| --- | --- | --- | --- | --- | --- | --- | --- | --- | --- | --- | --- |
| O=C(NCCCS(=O)(=O)N1CCN(C(=O)NC(C(=O)N[C@H]2Cc3ccc(F)c(C(=O)O)c3OB2O)c2cc(F)c(O)c(O)c2Cl)C1=O)c1cccnc1 (stereo partly drawn) [Example 273, (3R)-3-(2-(2-chloro-5-fluoro-3,4-dihydroxyphenyl)-2-(3-((3-(nicotinamido)propyl)sulfonyl)-2-oxoimidazolidine-1-carboxamido)acetamido)-7-fluoro-2-hydroxy-3,4-dihydro-2H-benzo[e][1,2]oxaborinine-8-carboxylic acid] | > 64 µg/mL | 16 to 32 µg/mL (≈ 20.5 to 41 µM) | < 1 µg/mL | 2 to 4 µg/mL (≈ 2.56 to 5.12 µM) | < 1 µg/mL | > 250 µM | < 1 µg/mL | 16 to 32 µg/mL (≈ 20.5 to 41 µM) |  |  |  |
| O=C(NCCN1CCN(C(=O)NC(C(=O)N[C@H]2Cc3ccc(F)c(C(=O)O)c3OB2O)c2cc(F)c(O)c(O)c2Cl)C1=O)c1nccs1 (stereo partly drawn) [Example 247, (3R)-3-(2-(2-chloro-5-fluoro-3,4-dihydroxyphenyl)-2-(2-oxo-3-(2-(thiazole-2-carboxamido)ethyl)imidazolidine-1-carboxamido)acetamido)-7-fluoro-2-hydroxy-3,4-dihydro-2H-benzo[e][1,2]oxaborinine-8-carboxylic acid] | > 64 µg/mL | > 64 µg/mL | < 1 µg/mL | 2 to 4 µg/mL (≈ 2.82 to 5.64 µM) | < 1 µg/mL | > 250 µM | < 1 µg/mL | 16 to 32 µg/mL (≈ 22.6 to 45.1 µM) |  |  |  |
| O=C(O)c1c(F)ccc2c1OB(O)[C@@H](NC(=O)C(NC(=O)N1CCN(CCCNC(=O)[C@@H]3CCCN3)C(=O)C1=O)c1cc(F)c(O)c(O)c1Cl)C2 (stereo partly drawn) [Example 212, (3R)-3-(2-(2-chloro-5-fluoro-3,4-dihydroxyphenyl)-2-(2,3-dioxo-4-(3-((S)-pyrrolidine-2-carboxamido)propyl)piperazine-1-carboxamido)acetamido)-7-fluoro-2-hydroxy-3,4-dihydro-2H-benzo[e][1,2]oxaborinine-8-carboxylic acid] |  |  | 2 to 4 µg/mL (≈ 2.71 to 5.43 µM) | 8 to 16 µg/mL (≈ 10.9 to 21.7 µM) | < 1 µg/mL | > 250 µM | 32 to 64 µg/mL (≈ 43.4 to 86.9 µM) |  | > 64 µg/mL | 16 to 32 µg/mL (≈ 21.7 to 43.4 µM) | 16 to 32 µg/mL (≈ 21.7 to 43.4 µM) |
| O=C(NCCCN1CCN(C(=O)NC(C(=O)N[C@H]2Cc3ccc(F)c(C(=O)O)c3OB2O)c2cc(F)c(O)c(O)c2Cl)C(=O)C1=O)c1ccncc1 (stereo partly drawn) [Example 205, (3R)-3-(2-(2-chloro-5-fluoro-3,4-dihydroxyphenyl)-2-(4-(3-(isonicotinamido)propyl)-2,3-dioxopiperazine-1-carboxamido)acetamido)-7-fluoro-2-hydroxy-3,4-dihydro-2H-benzo[e][1,2]oxaborinine-8-carboxylic acid] |  |  | < 1 µg/mL | 2 to 4 µg/mL (≈ 2.69 to 5.37 µM) | < 1 µg/mL | > 250 µM | < 1 µg/mL |  | > 64 µg/mL | 16 to 32 µg/mL (≈ 21.5 to 43 µM) | 4 to 8 µg/mL (≈ 5.37 to 10.7 µM) |
| O=C(NCCN1CCN(C(=O)NC(C(=O)N[C@H]2Cc3ccc(F)c(C(=O)O)c3OB2O)c2cc(F)c(O)c(O)c2Cl)C(=O)C1=O)c1cccnc1 (stereo partly drawn) [Example 217, (3R)-3-(2-(2-chloro-5-fluoro-3,4-dihydroxyphenyl)-2-(4-(2-(nicotinamido)ethyl)-2,3-dioxopiperazine-1-carboxamido)acetamido)-7-fluoro-2-hydroxy-3,4-dihydro-2H-benzo[e][1,2]oxaborinine-8-carboxylic acid] |  |  | 2 to 4 µg/mL (≈ 2.74 to 5.47 µM) | 8 to 16 µg/mL (≈ 10.9 to 21.9 µM) | 2 to 4 µg/mL (≈ 2.74 to 5.47 µM) | > 250 µM | > 128 µg/mL |  | > 64 µg/mL | 16 to 32 µg/mL (≈ 21.9 to 43.8 µM) | 16 to 32 µg/mL (≈ 21.9 to 43.8 µM) |
| O=C(NCCN1CCN(C(=O)NC(C(=O)N[C@H]2Cc3ccc(F)c(C(=O)O)c3OB2O)c2cc(F)c(O)c(O)c2Cl)C1=O)c1ccccc1 (stereo partly drawn) [Example 242, (3R)-3-(2-(3-(2-benzamidoethyl)-2-oxoimidazolidine-1-carboxamido)-2-(2-chloro-5-fluoro-3,4-dihydroxyphenyl)acetamido)-7-fluoro-2-hydroxy-3,4-dihydro-2H-benzo[e][1,2]oxaborinine-8-carboxylic acid] |  |  | < 1 µg/mL | 2 to 4 µg/mL (≈ 2.85 to 5.7 µM) | < 1 µg/mL | > 250 µM | 2 to 4 µg/mL (≈ 2.85 to 5.7 µM) |  | > 64 µg/mL | > 64 µg/mL | 16 to 32 µg/mL (≈ 22.8 to 45.6 µM) |
| O=C(NCCCN1CCN(C(=O)NC(C(=O)N[C@H]2Cc3ccc(F)c(C(=O)O)c3OB2O)c2cc(F)c(O)c(O)c2Cl)C(=O)C1=O)Nc1cccc(O)c1 (stereo partly drawn) [Example 206, (3R)-3-(2-(2-chloro-5-fluoro-3,4-dihydroxyphenyl)-2-(4-(3-(3-(3-hydroxyphenyl)ureido)propyl)-2,3-dioxopiperazine-1-carboxamido)acetamido)-7-fluoro-2-hydroxy-3,4-dihydro-2H-benzo[e][1,2]oxaborinine-8-carboxylic acid] |  |  | < 1 µg/mL | 2 to 4 µg/mL (≈ 2.58 to 5.16 µM) | < 1 µg/mL | > 250 µM | < 1 µg/mL |  | > 64 µg/mL | 16 to 32 µg/mL (≈ 20.6 to 41.3 µM) | 4 to 8 µg/mL (≈ 5.16 to 10.3 µM) |
| O=C(NCCN1CCN(C(=O)NC(C(=O)N[C@H]2Cc3ccc(F)c(C(=O)O)c3OB2O)c2cc(F)c(O)c(O)c2Cl)C(=O)C1=O)c1cccc(O)c1 (stereo partly drawn) [Example 215, (3R)-3-(2-(2-chloro-5-fluoro-3,4-dihydroxyphenyl)-2-(4-(2-(3-hydroxybenzamido)ethyl)-2,3-dioxopiperazine-1-carboxamido)acetamido)-7-fluoro-2-hydroxy-3,4-dihydro-2H-benzo[e][1,2]oxaborinine-8-carboxylic acid] |  |  | 2 to 4 µg/mL (≈ 2.68 to 5.36 µM) | 8 to 16 µg/mL (≈ 10.7 to 21.5 µM) | < 1 µg/mL | > 250 µM | > 128 µg/mL |  | > 64 µg/mL | 16 to 32 µg/mL (≈ 21.5 to 42.9 µM) | 4 to 8 µg/mL (≈ 5.36 to 10.7 µM) |
| O=C(NCCCN1CCN(C(=O)NC(C(=O)N[C@H]2Cc3ccc(F)c(C(=O)O)c3OB2O)c2cc(F)c(O)c(O)c2Cl)C(=O)C1=O)c1ccccc1 (stereo partly drawn) [Example 202, (3R)-3-(2-(4-(3-benzamidopropyl)-2,3-dioxopiperazine-1-carboxamido)-2-(2-chloro-5-fluoro-3,4-dihydroxyphenyl)acetamido)-7-fluoro-2-hydroxy-3,4-dihydro-2H-benzo[e][1,2]oxaborinine-8-carboxylic acid] |  |  | < 1 µg/mL | 8 to 16 µg/mL (≈ 10.8 to 21.5 µM) | < 1 µg/mL | > 250 µM | < 1 µg/mL |  | > 64 µg/mL | > 64 µg/mL | 16 to 32 µg/mL (≈ 21.5 to 43 µM) |
